The results in this text go back to patent US9480676B2, “Use of PDE4 inhibitors and combinations thereof for the treatment of cystic fibrosis” (Celgene Corporation, priority 2014, dated 2016).

Where “and” joins values, the source holds several entries; their conditions need not be identical. Identical values can stand only once.

The test system of the assay is PDE4. Kind of assay: Inhibition of PDE4 (enzyme purified from U937 human monocytic cells). It counts as biochemical. To be noted: 1 μM cAMP plus 10 nM [3H]-cAMP, 45 min at 30° C. On the procedure: Phosphodiesterase 4 enzyme was purified from U937 human monocytic cells by gel filtration chromatography, and phosphodiesterase reactions were carried out as previously described. See, e.g., Muller et al., Bioorg. Med. Chem. Lett., 1998, 8(19): 2669-2674. Briefly, reactions were carried out in 96-well deep-well plates in 50 mM Tris HCl pH 7.5, 5 mM MgCl2, 1 μM cyclic adenosine monophosphate (cAMP), plus 10 nM [^3H]-cAMP for 45 min at 30° C. The reactions were terminated by boiling, treated with 1 mg/ml snake venom, and separated using AG-1X8 ion exchange resin (BioRad). Reactions consumed less than 15% of available substrate. […] Compound B inhibited PDE4 with an IC50 of 100 nM.

In general, IC50 refers to the midpoint of a concentration-inhibition curve. As to `CCOc1cc([C@@H](CS(C)(=O)=O)N2C(=O)c3cccc(NC(C)=O)c3C2=O)ccc1OC` [Compound A1, (S)—N-(2-(1-(3-ethoxy-4-methoxyphenyl)-2-(methylsulfonyl)ethyl)-1,3-dioxoisoindolin-4-yl)acetamide], the IC50 is 73.5 nM and ~74 nM.

Consider `CCOc1cc([C@@H](CS(C)(=O)=O)N2Cc3cccc(NC(=O)C4CC4)c3C2=O)ccc1OC` [Compound B, (S)—N-(2-(1-(3-ethoxy-4-methoxyphenyl)-2-(methylsulfonyl)ethyl)-3-oxoisoindolin-4-yl)cyclopropanecarboxamide], for which the concentration for half-maximal inhibition (IC50) is 100 nM and ~100 nM.
